#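 All cell lines were grown in 96-well plates and treated with compound for 48 hours. GI50 marks 50% less growth. TGI is the concentration that stops growth completely.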
# Columns and labels:
# Assay in all cases: NCI-60 cell line screen, 48 h
# UO-31 renal = system: UO-31 renal
# A549 NSCLC = system: A549 NSCLC
# NCI-H226 lung = system: NCI-H226 lung
# SK-MEL-28 melanoma = system: SK-MEL-28 melanoma
# SK-MEL-5 melanoma = system: SK-MEL-5 melanoma
# SF-295 CNS = system: SF-295 CNS
# PC-3 prostate = system: PC-3 prostate
# DU-145 prostate = system: DU-145 prostate
# NCI/ADR-RES ovarian = system: NCI/ADR-RES ovarian
SMILES,GI50 (UO-31 renal) [µM],TGI (UO-31 renal) [µM],GI50 (A549 NSCLC) [µM],TGI (A549 NSCLC) [µM],GI50 (NCI-H226 lung) [µM],TGI (NCI-H226 lung) [µM],GI50 (SK-MEL-28 melanoma) [µM],TGI (SK-MEL-28 melanoma) [µM],GI50 (SK-MEL-5 melanoma) [µM],TGI (SK-MEL-5 melanoma) [µM],GI50 (SF-295 CNS) [µM],TGI (SF-295 CNS) [µM],TGI (PC-3 prostate) [µM],TGI (DU-145 prostate) [µM],TGI (NCI/ADR-RES ovarian) [µM],GI50 (PC-3 prostate) [µM],GI50 (DU-145 prostate) [µM],GI50 (NCI/ADR-RES ovarian) [µM]
N[C@@H]1CCCC[C@@H]1N.O=C([O-])CN(CP(=O)([O-])[O-])CP(=O)([O-])[O-].[Pt+2],> 100,> 100,> 100,> 100,> 100,> 100,> 100,> 100,> 100,> 100,> 100,> 100,–,–,–,–,–,–
c1cc[c]([Sn]([S]c2cccc3cccnc23)([S]c2cccc3cccnc23)[c]2ccccc2)cc1,0.182,0.514,0.363,1.38,0.175,1.06,0.196,0.532,0.204,0.483,0.353,1.4,–,–,–,–,–,–
O=C(O)/C(=C\c1ccccc1Cl)S(=O)(=O)c1ccccc1,–,> 100,–,> 100,–,–,–,–,–,> 100,–,> 100,–,–,–,–,–,–
BrC1=CC=C2NCCCCCCN=C3C=CC(Br)=CC=C3NCCCCCCN=C2C=C1,–,> 25.5,–,> 25.5,–,> 25.5,–,> 25.5,–,> 25.5,–,> 25.5,–,–,–,–,–,–
CC1(C)CC(=O)C(=[N+]=[N-])C(=O)C1,–,–,–,> 100,–,> 100,–,> 100,–,–,–,> 100,–,–,–,–,–,–
C1=C(c2ccccc2)SC=C(c2ccccc2)S1,–,> 100,–,> 100,–,81.8,–,> 100,–,77.9,–,> 100,> 100,> 100,64,–,–,–
COC(=O)OCc1ccc2c(c1)C(=O)c1c-2n(CCCBr)c(=O)c2cc([N+](=O)[O-])ccc12,> 100,> 100,> 100,> 100,> 100,> 100,> 100,> 100,> 100,> 100,31.7,> 100,> 100,> 100,> 100,> 100,> 100,> 100
CN1CCN(c2ccc(NC3=C(Cl)C(=O)c4ncccc4C3=O)cc2C#N)CC1,1.34,2.61,17.4,33.7,16.8,36.3,1.86,3.26,1.83,3.38,15,28.8,9.34,15.5,24.3,2.29,2.99,4.56
O=C1c2ccn(CCCCN3CCCCC3)c2C(=O)c2c1c(O)c1ccccc1c2O,20.9,> 100,10.3,33.9,30,> 73.7,3.73,44.2,13.3,33.9,13.2,45.4,18.1,30.3,55.6,4.76,14.1,14.4
COc1cc(Cl)c2c3c(c(C(=O)c4ccccc4)oc13)CCC2,–,–,–,> 100,–,–,–,> 100,–,> 100,–,> 100,–,–,–,–,–,–
CC1CCP(=O)(c2ccccc2)CC1 (centres undefined),–,> 100,–,> 100,–,–,–,> 100,–,> 100,–,> 100,–,–,–,–,–,–
C=CCC(N[C@H](CO)c1ccccc1)c1cn(S(=O)(=O)c2ccc(C)cc2)c2ccccc12 (some centres undefined),94.8,> 100,12.7,32.4,–,–,41.6,> 100,26.1,43.8,8.19,34.8,77.1,67.2,46.2,17.8,26.7,18.9
CCCCN(CCCC)C(=O)C(=O)C(C)C(=O)CC (centres undefined),–,> 100,–,> 100,–,> 100,–,> 100,–,–,–,> 100,–,–,–,–,–,–
CC(=O)c1cc2c(c3ccsc13)-c1ccccc1CC2,26.6,85.2,35.7,> 100,38,> 100,> 100,> 100,12.7,35.7,26.5,> 100,> 100,> 100,44.8,27.9,23.5,16.6
Cc1[nH]nc2c1C(=O)C=C(N(CCO)c1ccccc1)C2=O,–,> 100,–,> 100,–,> 100,–,> 100,–,> 100,–,> 100,–,–,–,–,–,–
COc1ccc(C(=O)C(C(=O)C(=O)Nc2nccs2)c2ccc(OC)cc2)cc1 (centres undefined),–,> 100,–,> 100,–,–,–,> 100,–,> 100,–,–,–,–,–,–,–,–
O=[N+]([O-])[O-].O=[N+]([O-])[O-].[Au].[Au].c1ccc([P-]c2ccccc2)cc1.c1ccc([P-]c2ccccc2)cc1,25.9,47.5,84,> 100,–,–,29.3,75.6,34.1,88.8,> 100,> 100,–,–,–,–,–,–
